ChEMBL document CHEMBL4665751, “Discovery of Clinical Candidate (5-(3-(4-Chlorophenoxy)prop-1-yn-1-yl)-3-hydroxypicolinoyl)glycine, an Orally Bioavailable Prolyl Hydroxylase Inhibitor for the Treatment of Anemia” (J Med Chem, 2020)
Calls of active or inactive are those of the source. The calls are words filed in the database; no cut-off is given here.

What was measured:
L02 = assay: Cytotoxicity against human L02 cells assessed as reduction in cell viability at 10 to 100 uM incubated for 72 hrs by MTT assay; assay type: cell-based; conditions: l02, 72 h, dose 10-100 µM
Cytochrome P450 3A4 [1] = target: T1, Cytochrome P450 3A4 (Homo sapiens, UniProt P08684); assay: Inhibition of CYP3A4 (unknown origin) using testosterone as substrate preincubated for 5 mins followed by addition of NADPH measured after 20 mins by LC-MS/MS analysis; assay type: ADME
T1 sequence (P08684 whole entry): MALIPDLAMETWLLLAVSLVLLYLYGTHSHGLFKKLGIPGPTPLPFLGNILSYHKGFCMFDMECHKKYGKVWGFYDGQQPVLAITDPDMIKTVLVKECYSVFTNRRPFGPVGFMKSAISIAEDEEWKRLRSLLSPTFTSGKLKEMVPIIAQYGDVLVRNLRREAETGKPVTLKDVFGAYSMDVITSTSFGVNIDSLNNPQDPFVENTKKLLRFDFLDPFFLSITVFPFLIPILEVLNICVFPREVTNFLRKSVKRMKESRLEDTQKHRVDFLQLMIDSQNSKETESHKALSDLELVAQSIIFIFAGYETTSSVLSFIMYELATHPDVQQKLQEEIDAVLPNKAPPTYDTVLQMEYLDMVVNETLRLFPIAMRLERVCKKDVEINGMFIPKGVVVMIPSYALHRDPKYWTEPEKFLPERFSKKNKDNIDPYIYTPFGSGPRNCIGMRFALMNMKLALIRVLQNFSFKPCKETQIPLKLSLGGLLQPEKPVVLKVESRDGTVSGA

[2] = Apparent volume of distribution in Sprague-Dawley rat at 2 mg/kg, ig by LC-MS/MS analysis; assay type: ADME, organism-based; conditions: in vivo, po
[3] = Apparent volume of distribution in Beagle dog at 2 mg/kg, ig by LC-MS/MS analysis; assay type: ADME, organism-based, Canis lupus familiaris; conditions: in vivo, po
Cytochrome P450 2D6 = Cytochrome P450 2D6 (Homo sapiens, UniProt P10635); assay: Inhibition of CYP2D6 (unknown origin) using dextromethorphan as substrate preincubated for 5 mins followed by addition of NADPH measured after 20 mins by LC-MS/MS analysis; assay type: ADME
Cytochrome P450 2D6, sequence (P10635 whole entry): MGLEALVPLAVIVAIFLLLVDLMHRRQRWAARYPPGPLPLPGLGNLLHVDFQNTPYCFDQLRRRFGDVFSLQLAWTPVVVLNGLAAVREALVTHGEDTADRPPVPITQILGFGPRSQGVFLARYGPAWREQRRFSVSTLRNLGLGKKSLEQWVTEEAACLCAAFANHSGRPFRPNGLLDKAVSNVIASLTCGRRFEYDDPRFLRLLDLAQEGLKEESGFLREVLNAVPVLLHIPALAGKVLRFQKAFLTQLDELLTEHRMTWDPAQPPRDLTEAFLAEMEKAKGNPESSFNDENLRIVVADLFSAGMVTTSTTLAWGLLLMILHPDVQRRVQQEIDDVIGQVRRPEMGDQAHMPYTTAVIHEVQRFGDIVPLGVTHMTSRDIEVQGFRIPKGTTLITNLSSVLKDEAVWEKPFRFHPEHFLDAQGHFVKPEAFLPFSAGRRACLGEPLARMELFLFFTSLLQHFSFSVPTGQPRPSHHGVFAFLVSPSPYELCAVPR

Homo sapiens [4] = species: Homo sapiens; assay: Selectivity index, ratio of IC50 for PHD1 (unknown origin) by O-phenyl enediamine(OPD) based fluorescence assay to IC50 for PHD2 (unknown origin) by O-phenyl enediamine(OPD) based fluorescence assay
Egl nine homolog 1 [5] = target: T2, Egl nine homolog 1 (Homo sapiens, UniProt Q9GZT9); assay: Inhibition of PHD2 in human Hep3B cells assessed as upregulation of EPO mRNA expression measured after 10 hrs by Trizol reagent based qRT-PCR analysis; assay type: cell-based; conditions: dose microM 5-50, time 10.0 hrs
T2 sequence (Q9GZT9 2-426 limits assumed): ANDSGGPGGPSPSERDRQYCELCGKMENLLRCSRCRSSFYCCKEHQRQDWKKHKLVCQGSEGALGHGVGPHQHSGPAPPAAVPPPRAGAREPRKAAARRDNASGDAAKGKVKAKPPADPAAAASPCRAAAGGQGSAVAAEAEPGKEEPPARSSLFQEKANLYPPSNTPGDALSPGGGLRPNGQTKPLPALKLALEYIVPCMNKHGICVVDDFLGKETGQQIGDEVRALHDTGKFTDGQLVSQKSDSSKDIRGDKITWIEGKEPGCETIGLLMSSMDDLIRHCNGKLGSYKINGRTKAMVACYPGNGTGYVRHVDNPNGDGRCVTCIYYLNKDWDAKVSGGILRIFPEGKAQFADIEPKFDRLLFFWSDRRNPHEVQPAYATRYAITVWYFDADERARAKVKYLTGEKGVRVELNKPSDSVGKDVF

Cytochrome P450 3A4 [6] = target: T1, Cytochrome P450 3A4; assay: Inhibition of CYP3A4 (unknown origin) using midazolam as substrate preincubated for 5 mins followed by addition of NADPH measured after 20 mins by LC-MS/MS analysis; assay type: ADME
[7] = Acute toxicity in Sprague-Dawley rat assessed as change in ratio of kidney to body weight at 15 to 200 mg/kg, po administered every alternate days for 2 weeks measured on day 14; assay type: organism-based; conditions: in vivo, 336 h, dose 15-200 mg/kg, time 14 day
[8] = AUC (0 to infinity) in Beagle dog at 2 mg/kg, ig by LC-MS/MS analysis; assay type: ADME, organism-based, Canis lupus familiaris; parameters: route […], time infinity, dose 2 mg/kg; conditions: in vivo, po
[9] = Acute toxicity in Sprague-Dawley rat assessed as change in ratio of brain to body weight at 15 to 200 mg/kg, po administered every alternate days for 2 weeks measured on day 14; assay type: organism-based; conditions: in vivo, 336 h, dose 15-200 mg/kg, time 14 day
[10] = Hepatotoxicity in male Sprague-Dawley rat assessed as change in albumin/globulin ratio at 15 to 200 mg/kg, po administered every alternate days for 2 weeks measured on day 14; assay type: toxicity, organism-based; conditions: in vivo, 336 h, dose 15-200 mg/kg, time 14 day
[11] = Half-life in Beagle dog at 0.5 mg/kg, iv by LC-MS/MS analysis; assay type: ADME, organism-based, Canis lupus familiaris; conditions: in vivo
[12] = Hepatotoxicity in male Sprague-Dawley rat assessed as change in alanine aminotransferase level in blood at 15 to 200 mg/kg, po administered every alternate days for 2 weeks measured on day 14; assay type: toxicity, organism-based; conditions: in vivo, 336 h, dose 15-200 mg/kg, time 14 day
[13] = Acute toxicity in female Sprague-Dawley rat assessed as change in ratio of ovary to body weight at 15 to 200 mg/kg, po administered every alternate days for 2 weeks measured on day 14; assay type: organism-based; conditions: in vivo, 336 h, dose 15-200 mg/kg, time 14 day
[14] = MRT (0 to infinity) in Sprague-Dawley rat at 2 mg/kg, ig by LC-MS/MS analysis; assay type: ADME, organism-based; conditions: in vivo, po
Egl nine homolog 1 [15] = target: T2, Egl nine homolog 1; assay: Inhibition of PHD2 in human Hep3B cells assessed as increase in EPO expression measured after 24 hrs by ELISA; assay type: cell-based; conditions: dose microM 5-50, time 24.0 hrs
[16] = Acute toxicity in Sprague-Dawley rat assessed as change in ratio of thymus to body weight at 15 to 200 mg/kg, po administered every alternate days for 2 weeks measured on day 14; assay type: organism-based; conditions: in vivo, 336 h, dose 15-200 mg/kg, time 14 day
[17] = Nephrotoxicity in Sprague-Dawley rat assessed as change in urea level in blood at 15 to 200 mg/kg, po administered every alternate days for 2 weeks measured on day 14; assay type: toxicity, organism-based; conditions: in vivo, 336 h, dose 15-200 mg/kg, time 14 day
MCF7 = assay: Cytotoxicity against human MCF7 cells assessed as reduction in cell viability at 10 to 100 uM incubated for 72 hrs by MTT assay; assay type: cell-based; conditions: mcf7, 72 h, dose 10-100 µM
[18] = Half-life in rat liver microsome at 1 uM preincubated for 5 mins followed by NADPH addition measured up to 120 mins by LC-MS/MS analysis; assay type: ADME; conditions: liver microsomes, time <=125 min
Homo sapiens [19] = species: Homo sapiens; assay: Selectivity index, ratio of IC50 for KDM6B (unknown origin) in presence of peptide substrate incubated for 30 mins by alpha screen assay to IC50 for PHD2 (unknown origin) by O-phenyl enediamine(OPD) based fluorescence assay
[20] = Half-life in dog liver microsome at 1 uM preincubated for 5 mins followed by NADPH addition measured up to 120 mins by LC-MS/MS analysis; assay type: ADME, Canis lupus familiaris; conditions: liver microsomes, time <=125 min
[21] = Half-life in mouse hepatocytes at 100 uM incubated up to 120 mins by LC-MS/MS analysis; assay type: ADME, cell-based, Hepatocyte
Mus musculus = assay: Antianemic activity in cisplatin-induced C57BL/6 mouse anemia model assessed as increase in haemoglobin level administered orally every other day for 1 month; assay type: functional, organism-based; conditions: dose mg/kg 10-25, time 1.0 months
[22] = Half-life in rat hepatocytes at 100 uM incubated up to 120 mins by LC-MS/MS analysis; assay type: ADME, cell-based, Hepatocyte
[23] = Nephrotoxicity in male Sprague-Dawley rat assessed as effect on total protein level in blood at 15 to 200 mg/kg, iv or po administered every alternate days for 2 weeks measured on day 14; assay type: toxicity, organism-based; conditions: in vivo, 336 h, dose 15-200 mg/kg, time 14 day
[24] = Tmax in Beagle dog at 2 mg/kg, ig by LC-MS/MS analysis; assay type: ADME, organism-based, Canis lupus familiaris; conditions: in vivo, po
Egl nine homolog 1 [25] = target: T2, Egl nine homolog 1; assay: Inhibition of PHD2 in human MCF7 cells assessed as upregulation of HIFalpha expression at 50 uM incubated for 24 hrs by firefly/renilla luciferase reporter gene assay relative to control; assay type: cell-based
[26] = MRT (0 to infinity) in Beagle dog at 2 mg/kg, ig by LC-MS/MS analysis; assay type: ADME, organism-based, Canis lupus familiaris; conditions: in vivo, po
[27] = Cmax in Sprague-Dawley rat at 2 mg/kg, ig by LC-MS/MS analysis; assay type: ADME, organism-based; parameters: route […], dose 2 mg/kg; conditions: in vivo, po
[28] = Apparent volume of distribution in Sprague-Dawley rat at 1 mg/kg, iv by LC-MS/MS analysis; assay type: ADME, organism-based; conditions: in vivo, read-out: Vz
[29] = Genotoxicity in Salmonella typhimurium TA98 at 62.5 to 1000 ug incubated for 48 to 50 hrs in absence of S9 fraction by Ames test; assay type: toxicity, Salmonella enterica subsp. enterica serovar Typhimurium; conditions: in vivo; dose 62.5-1000 µg, time 48-50 hrs
[30] = Hepatotoxicity in male Sprague-Dawley rat assessed as change in globulin level at 15 to 200 mg/kg, po administered every alternate days for 2 weeks measured on day 14; assay type: toxicity, organism-based; conditions: in vivo, 336 h, dose 15-200 mg/kg, time 14 day
[31] = Intrinsic clearance in human liver microsome at 1 uM preincubated for 5 mins followed by NADPH addition measured up to 120 mins by LC-MS/MS analysis; assay type: ADME; conditions: microsomes, 2 h, time <=125 min
[32] = Half-life in mouse liver microsome at 1 uM preincubated for 5 mins followed by NADPH addition measured up to 120 mins by LC-MS/MS analysis; assay type: ADME; conditions: liver microsomes, time <=125 min
[33] = MRT (0 to infinity) in Beagle dog at 0.5 mg/kg, iv by LC-MS/MS analysis; assay type: ADME, organism-based, Canis lupus familiaris; conditions: in vivo

In the case of O=C(O)CNC(=O)c1ncc(C#CCOc2ccc(Cl)cc2)cc1O [DDO-3055], the Activity (L02) is reported as “Non-Toxic”, the IC50 (Cytochrome P450 3A4 [1]) is reported as greater than 30 µM and the Vz [2] is reported as 3.409 L/kg. For the same molecule, the Vz [3] was 8.417 L/kg, the IC50 (Cytochrome P450 2D6) was greater than 30 µM and the Ratio IC50 (Homo sapiens [4]) was 29. The inhibition (Egl nine homolog 1 [5]) was “Dose-dependent effect”, the IC50 (Cytochrome P450 3A4 [6]) was greater than 30 µM and the Activity [7] was “Non-Toxic”. For the same molecule, the AUC(0-inf) [8] was 1.37 µg·h/mL, the Activity [9] was “Non-Toxic” and the Activity [10] was “Non-Toxic”. The half-life [11] was 2.91 h, the Activity [12] was “Non-Toxic” and the Activity [13] was “Non-Toxic”. For the same molecule, the MRT inf [14] was 9.43 h, the inhibition (Egl nine homolog 1 [15]) was “Dose-dependent effect” and the Activity [16] was “Non-Toxic”. The Activity [17] was “Non-Toxic”, the Activity (MCF7) was “Non-Toxic” and the half-life at 1 µM [18] was greater than 1.12 h. It also gave a Ratio IC50 (Homo sapiens [19]) greater than 156, a half-life at 1 µM [20] greater than 2.32 h and a half-life at 100 µM [21] of 8.68 min. For the same molecule, the Activity (Mus musculus) was “Active”, the half-life at 100 µM [22] was 0.538 h and the Activity [23] was “Non-Toxic”. It also gave a Tmax [24] of 0.67 h, a fold change (FC) (Egl nine homolog 1 [25]) of 7 and an MRT inf [26] of 4.69 h. For the same molecule, the Cmax [27] was 1.03 µg/mL, the Vd [28] was 2.52 L/kg and the Activity [29] was “Non-Toxic”. The Activity [30] was “Non-Toxic”, the CLH [31] was less than 14.4 mL/day/kg and the half-life at 1 µM [32] was greater than 2.32 h. For the same molecule, the MRT inf [33] was 2.27 h.
